Source: patent publication US20040063662A1, “Selenophene anti-tumor agents” (priority 1996, published 2004)

How the values were obtained:
MCF7/ADR-RES = assay: NCI human tumor cell panel: MCF7/ADR-RES (Breast Cancer); format: cell-based
MDA-MB-435 = assay: NCI human tumor cell panel: MDA-MB-435 (Breast Cancer); format: cell-based
OVCAR-3 = assay: NCI human tumor cell panel: OVCAR-3 (Ovarian Cancer); format: cell-based
SF-539 = assay: NCI human tumor cell panel: SF-539 (CNS Cancer); format: cell-based
PC-3 = assay: NCI human tumor cell panel: PC-3 (Prostate Cancer); format: cell-based
NCI-H460 = assay: NCI human tumor cell panel: NCI-H460 (Non-Small Cell Lung Cancer); format: cell-based; conditions: NCI-H460, read-out: Log10 TGI (converted)
TK-10 = assay: NCI human tumor cell panel: TK-10 (Renal Cancer); format: cell-based
RPMI-8226 = assay: NCI human tumor cell panel: RPMI-8226 (Leukemia); format: cell-based
SF-295 = assay: NCI human tumor cell panel: SF-295 (CNS Cancer); format: cell-based
OVCAR-8 = assay: NCI human tumor cell panel: OVCAR-8 (Ovarian Cancer); format: cell-based
SR = assay: NCI human tumor cell panel: SR (Leukemia); format: cell-based
K-562 = assay: NCI human tumor cell panel: K-562 (Leukemia); format: cell-based
SK-MEL-28 = assay: NCI human tumor cell panel: SK-MEL-28 (Melanoma); format: cell-based
UACC-257 = assay: NCI human tumor cell panel: UACC-257 (Melanoma); format: cell-based
IGROV1 = assay: NCI human tumor cell panel: IGROV1 (Ovarian Cancer); format: cell-based
NCI-H522 = assay: NCI human tumor cell panel: NCI-H522 (Non-Small Cell Lung Cancer)
EKVX = assay: NCI human tumor cell panel: EKVX (Non-Small Cell Lung Cancer); format: cell-based
786-0 = assay: NCI human tumor cell panel: 786-0 (Renal Cancer); format: cell-based
A498 = assay: NCI human tumor cell panel: A498 (Renal Cancer); format: cell-based
SNB-19 = assay: NCI human tumor cell panel: SNB-19 (CNS Cancer); format: cell-based
OVCAR-4 = assay: NCI human tumor cell panel: OVCAR-4 (Ovarian Cancer); format: cell-based; conditions: OVCAR-4, read-out: Log10 TGI (converted)
UO-31 = assay: NCI human tumor cell panel: UO-31 (Renal Cancer); format: cell-based
MALME-3M = assay: NCI human tumor cell panel: MALME-3M (Melanoma); format: cell-based; conditions: Malme-3M, read-out: Log10 GI50 (converted)
KM12 = assay: NCI human tumor cell panel: KM12 (Colon Cancer); format: cell-based
BT-549 = assay: NCI human tumor cell panel: BT-549 (Breast Cancer); format: cell-based
A549/ATCC = assay: NCI human tumor cell panel: A549/ATCC (Non-Small Cell Lung Cancer); format: cell-based
LOX IMVI = assay: NCI human tumor cell panel: LOX IMVI (Melanoma); format: cell-based
OVCAR-5 = assay: NCI human tumor cell panel: OVCAR-5 (Ovarian Cancer); format: cell-based
NCI-H322M = assay: cells; format: cell-based; conditions: Homo sapiens
HOP-92 = assay: NCI human tumor cell panel: HOP-92 (Non-Small Cell Lung Cancer)
HS 578T = assay: NCI human tumor cell panel: HS 578T (Breast Cancer); format: cell-based
ACHN = assay: NCI human tumor cell panel: ACHN (Renal Cancer); format: cell-based
[1] = read-out: Log10 GI50 (converted)
[2] = read-out: Log10 TGI (converted)

How did the GI50 (MCF7/ADR-RES; [1]) turn out when OCc1ccc(-c2ccc(-c3ccc[se]3)s2)[se]1 [compound 676631] was run?
Its GI50 is 10 µM.

What about the IC (TGI) (MCF7/ADR-RES; [2]) of the same molecule?
Its IC (TGI) is 31.6 µM.

What about the GI50 (MDA-MB-435; MDA-MB-435, read-out: Log10 GI50 (converted)) of the same molecule?
Its GI50 is 8.13 µM.

And the IC (TGI) (MDA-MB-435; MDA-MB-435, read-out: Log10 TGI (converted))?
Its IC (TGI) is 55 µM.

And the GI50 (OVCAR-3; OVCAR-3, read-out: Log10 GI50 (converted))?
Its GI50 is 0.0275 µM.

What about the IC (TGI) (OVCAR-3; OVCAR-3, read-out: Log10 TGI (converted)) of the same molecule?
The IC (TGI) was 0.138 µM.

What about the GI50 (SF-539; SF-539, read-out: Log10 GI50 (converted)) of the same molecule?
The GI50 was 12.3 µM.

And the IC (TGI) (SF-539; SF-539, read-out: Log10 TGI (converted))?
Its IC (TGI) is 57.5 µM.

What about the GI50 (PC-3; PC-3, read-out: Log10 GI50 (converted)) of the same molecule?
The GI50 was 52.5 µM.

What about the IC (TGI) (PC-3; PC-3, read-out: Log10 TGI (converted)) of the same molecule?
Its IC (TGI) is greater than 100 µM.

What about the IC (TGI) (NCI-H460) of the same molecule?
The IC (TGI) was greater than 100 µM.

And the GI50 (TK-10; TK-10, read-out: Log10 GI50 (converted))?
The GI50 was 0.0501 µM.

And the IC (TGI) (TK-10; TK-10, read-out: Log10 TGI (converted))?
Its IC (TGI) is 0.372 µM.

And the GI50 (RPMI-8226; RPMI-8226, read-out: Log10 GI50 (converted))?
The GI50 was greater than 100 µM.

And the IC (TGI) (RPMI-8226; RPMI-8226, read-out: Log10 TGI)?
Its IC (TGI) is greater than 100 µM.

And the GI50 (SF-295; SF-295, read-out: Log10 GI50 (converted))?
Its GI50 is 55 µM.

What about the IC (TGI) (SF-295; SF-295, read-out: Log10 TGI (converted)) of the same molecule?
The IC (TGI) was greater than 100 µM.

What about the GI50 (OVCAR-8; OVCAR-8, read-out: Log10 GI50 (converted)) of the same molecule?
The GI50 was 24.5 µM.

And the IC (TGI) (OVCAR-8; OVCAR-8, read-out: Log10 TGI (converted))?
Its IC (TGI) is greater than 100 µM.

What about the GI50 (SR; [1]) of the same molecule?
Its GI50 is greater than 100 µM.

And the IC (TGI) (SR; [2])?
The IC (TGI) was greater than 100 µM.

And the GI50 (K-562; K562, K-562, read-out: Log10 GI50 (converted))?
The GI50 was 0.102 µM.

And the IC (TGI) (K-562; K562, K-562, read-out: Log10 TGI (converted))?
Its IC (TGI) is greater than 100 µM.

And the GI50 (SK-MEL-28; SK-MEL-28, read-out: Log10 GI50 (converted))?
Its GI50 is 66.1 µM.

And the IC (TGI) (SK-MEL-28; SK-MEL-28, read-out: Log10 TGI (converted))?
Its IC (TGI) is greater than 100 µM.

What about the GI50 (UACC-257; UACC-257, read-out: Log10 GI50 (converted)) of the same molecule?
Its GI50 is 0.0316 µM.

And the IC (TGI) (UACC-257; UACC-257, read-out: Log10 TGI (converted))?
Its IC (TGI) is greater than 100 µM.

What about the GI50 (IGROV1; IGROV-1, IGROV1, read-out: Log10 GI50 (converted)) of the same molecule?
Its GI50 is 0.0813 µM.

What about the IC (TGI) (IGROV1; IGROV-1, IGROV1, read-out: Log10 TGI (converted)) of the same molecule?
Its IC (TGI) is 0.603 µM.

What about the GI50 (NCI-H522; NCI-H522, read-out: Log10 GI50 (converted)) of the same molecule?
The GI50 was 5.25 µM.

And the IC (TGI) (NCI-H522; NCI-H522, read-out: Log10 TGI)?
Its IC (TGI) is 21.4 µM.

What about the GI50 (EKVX; [1]) of the same molecule?
The GI50 was greater than 100 µM.

And the IC (TGI) (EKVX; [2])?
Its IC (TGI) is greater than 100 µM.

And the GI50 (786-0; 786-0, read-out: Log10 GI50 (converted))?
The GI50 was greater than 100 µM.

And the IC (TGI) (786-0; 786-0, read-out: Log10 TGI (converted))?
The IC (TGI) was greater than 100 µM.

And the GI50 (A498; A498, read-out: Log10 GI50 (converted))?
Its GI50 is 0.0275 µM.

And the IC (TGI) (A498; A498, read-out: Log10 TGI (converted))?
The IC (TGI) was 0.0832 µM.

And the GI50 (SNB-19; SNB-19, read-out: Log10 GI50 (converted))?
The GI50 was 17.4 µM.

What about the IC (TGI) (SNB-19; SNB-19, read-out: Log10 TGI (converted)) of the same molecule?
Its IC (TGI) is greater than 100 µM.

What about the IC (TGI) (OVCAR-4) of the same molecule?
Its IC (TGI) is greater than 100 µM.

What about the GI50 (UO-31; UO-31, read-out: Log10 GI50 (converted)) of the same molecule?
The GI50 was greater than 100 µM.

And the IC (TGI) (UO-31; UO-31, read-out: Log10 TGI (converted))?
The IC (TGI) was greater than 100 µM.

What about the GI50 (MALME-3M) of the same molecule?
Its GI50 is greater than 100 µM.

What about the GI50 (KM12; KM12, read-out: Log10 GI50 (converted)) of the same molecule?
The GI50 was 26.9 µM.

And the IC (TGI) (KM12; KM12, read-out: Log10 TGI (converted))?
The IC (TGI) was greater than 100 µM.

What about the GI50 (BT-549; BT-549, read-out: Log10 GI50 (converted)) of the same molecule?
The GI50 was 17 µM.

What about the IC (TGI) (BT-549; BT-549, read-out: Log10 TGI (converted)) of the same molecule?
The IC (TGI) was 38 µM.

And the GI50 (A549/ATCC; [1])?
Its GI50 is 58.9 µM.

And the IC (TGI) (A549/ATCC; [2])?
The IC (TGI) was greater than 100 µM.

What about the GI50 (LOX IMVI; [1]) of the same molecule?
The GI50 was 15.1 µM.

What about the IC (TGI) (LOX IMVI; [2]) of the same molecule?
The IC (TGI) was 36.3 µM.

And the GI50 (OVCAR-5; OVCAR-5, read-out: Log10 GI50 (converted))?
Its GI50 is 0.0316 µM.

What about the IC (TGI) (OVCAR-5; OVCAR-5, read-out: Log10 TGI (converted)) of the same molecule?
Its IC (TGI) is 0.209 µM.

What about the GI50 (NCI-H322M; [1]) of the same molecule?
The GI50 was 21.9 µM.

And the IC (TGI) (NCI-H322M; [2])?
Its IC (TGI) is greater than 100 µM.

What about the GI50 (HOP-92; HOP-92, read-out: Log10 GI50 (converted)) of the same molecule?
Its GI50 is greater than 100 µM.

What about the IC (TGI) (HOP-92; HOP-92, read-out: Log10 TGI) of the same molecule?
The IC (TGI) was greater than 100 µM.

What about the GI50 (HS 578T; [1]) of the same molecule?
Its GI50 is greater than 100 µM.

And the IC (TGI) (HS 578T; [2])?
Its IC (TGI) is greater than 100 µM.

What about the GI50 (ACHN; [1]) of the same molecule?
Its GI50 is greater than 100 µM.

What about the IC (TGI) (ACHN; [2]) of the same molecule?
The IC (TGI) was greater than 100 µM.
